According to PubChem BioAssay AID330 (DTP/NCI, 2004):
Where “and” joins values, the source holds several entries; their conditions need not be identical. Equal values may be shown once. Inconclusive results and toxic doses are left out.

Test system: P388 leukemia ip, CD2F1 mice, survival T/C
Test: NCI In Vivo Anticancer Drug Screen. Data for tumor model P388 Leukemia (intraperitoneal) in CD2F1 (CDF1) mice
Conditions: endpoint: median survival time, higher = longer survival
Procedure, shortened: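 Mice carrying the transplanted tumor received test compound or vehicle. Survival was recorded in each group, and the value is the treated-group measurement divided by that of the vehicle-treated control group.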

[1] = dose: 50.0 mg/kg/injection, schedule: Q01DX009 (ip), vehicle: Klucel (hydroxypropylcellulose) (HPC)
[2] = dose: 100.0 mg/kg/injection, schedule: Q01DX009 (ip), vehicle: Klucel (hydroxypropylcellulose) (HPC)
[3] = dose: 200.0 mg/kg/injection, schedule: Q01DX009 (ip), vehicle: Klucel (hydroxypropylcellulose) (HPC)
[4] = dose: 50.0 mg/kg/injection, schedule: Q01DX005 (ip), vehicle: Klucel (hydroxypropylcellulose) (HPC)
[5] = dose: 100.0 mg/kg/injection, schedule: Q01DX005 (ip), vehicle: Klucel (hydroxypropylcellulose) (HPC)
[6] = dose: 200.0 mg/kg/injection, schedule: Q01DX005 (ip), vehicle: Klucel (hydroxypropylcellulose) (HPC)
[7] = dose: 60.0 mg/kg/injection, schedule: Q01DX005 (ip), vehicle: saline with Tween-80
[8] = dose: 120.0 mg/kg/injection, schedule: Q01DX005 (ip), vehicle: saline with Tween-80
[9] = dose: 240.0 mg/kg/injection, schedule: Q01DX005 (ip), vehicle: saline with Tween-80
[10] = dose: 50.0 mg/kg/injection, schedule: Q01DX009 (ip), vehicle: saline
[11] = dose: 100.0 mg/kg/injection, schedule: Q01DX009 (ip), vehicle: saline
[12] = dose: 200.0 mg/kg/injection, schedule: Q01DX009 (ip), vehicle: saline
[13] = dose: 50.0 mg/kg/injection, schedule: Q01DX005 (ip), vehicle: saline with Tween-80
[14] = dose: 100.0 mg/kg/injection, schedule: Q01DX005 (ip), vehicle: saline with Tween-80
[15] = dose: 200.0 mg/kg/injection, schedule: Q01DX005 (ip), vehicle: saline with Tween-80

CCCCCCCCCCCCCCCCNCC(O)CN (centres undefined)
T/C (dose: 3.13 mg/kg/injection, schedule: Q01DX009 (ip), vehicle: saline with Tween-80): 102 % of control
T/C (dose: 6.25 mg/kg/injection, schedule: Q01DX009 (ip), vehicle: saline with Tween-80): 96 % of control
T/C (dose: 12.5 mg/kg/injection, schedule: Q01DX009 (ip), vehicle: saline with Tween-80): 88 % of control

CC1=C(C(N)=O)C(c2ccc([N+](=O)[O-])cc2)NC(=S)N1 (centres undefined)
T/C (dose: 60.0 mg/kg/injection, schedule: Q01DX005 (ip), vehicle: Klucel (hydroxypropylcellulose) (HPC)): 92 % of control
T/C (dose: 120.0 mg/kg/injection, schedule: Q01DX005 (ip), vehicle: Klucel (hydroxypropylcellulose) (HPC)): 90 % of control
T/C (dose: 240.0 mg/kg/injection, schedule: Q01DX005 (ip), vehicle: Klucel (hydroxypropylcellulose) (HPC)): 92 % of control

c1cc2c3c(cccc3c1)-c1nc3c(ccc4ccccc43)nc1-2
T/C [1]: 107 % of control
T/C [2]: 101 % of control
T/C [3]: 93 % of control
T/C (dose: 400.0 mg/kg/injection, schedule: Q01DX009 (ip), vehicle: Klucel (hydroxypropylcellulose) (HPC)): 107 % of control

CN(CC1CNc2nc(N)[nH]c(=O)c2N1C=O)c1ccc(C(=O)NC(CCC(=O)O)C(=O)O)cc1 (centres undefined)
T/C (dose: 50.0 mg/kg/injection, schedule: Q01DX009 (ip), vehicle: sodium bicarbonate): 101 % of control
T/C (dose: 100.0 mg/kg/injection, schedule: Q01DX009 (ip), vehicle: sodium bicarbonate): 106 % of control
T/C (dose: 200.0 mg/kg/injection, schedule: Q01DX009 (ip), vehicle: sodium bicarbonate): 108 % of control

O=Nc1cc(S(=O)(=O)O)c2cccnc2c1O
T/C (dose: 100.0 mg/kg/injection, schedule: Q04DX002 (ip), vehicle: saline): 100 % of control
T/C (dose: 200.0 mg/kg/injection, schedule: Q04DX002 (ip), vehicle: saline): 100 % of control
T/C (dose: 400.0 mg/kg/injection, schedule: Q04DX002 (ip), vehicle: saline): 90 % of control

CCCCCCCCn1c(C)nc2c(cnn2C)c1=O
T/C [4]: 100 % of control
T/C [5]: 96 % of control
T/C [6]: 100 % of control

O=C1OC(c2ccc(Cl)c(Cl)c2)C(=O)C1=O (centres undefined)
T/C (dose: 3.75 mg/kg/injection, schedule: Q01DX005 (ip), vehicle: saline with Tween-80): 86 % of control
T/C (dose: 7.5 mg/kg/injection, schedule: Q01DX005 (ip), vehicle: saline with Tween-80): 91 % of control
T/C (dose: 15.0 mg/kg/injection, schedule: Q01DX005 (ip), vehicle: Klucel + Tween-80): 92 % of control
T/C (dose: 15.0 mg/kg/injection, schedule: Q01DX005 (ip), vehicle: saline with Tween-80): 102 % of control

CC1(C)CN(C2CCCCC2)CN2C1OCC2(C)C (centres undefined)
T/C (dose: 80.0 mg/kg/injection, schedule: Q01DX009 (ip), vehicle: saline with Tween-80): 117 % of control

CC(C)(C)/[N+]([O-])=C/C(c1ccccc1)C(/C=[N+](/[O-])C(C)(C)C)c1ccccc1 (centres undefined)
T/C [7]: 100 % of control
T/C [8]: 98 % of control
T/C [9]: 98 % of control

Cc1cc2nc(Nc3nc(C)c(C)c(=O)[nH]3)[nH]c2cc1C
T/C [10]: 108 % of control
T/C [11]: 102 % of control
T/C [12]: 90 % of control

COc1cccc2c1C(=O)c1c(O)c3c(c(O)c1C2=O)C[C@@](O)(C(C)=O)CC3OC1CC(NC(=O)C(C)N)C(O)C(C)O1 (some centres undefined)
T/C (dose: 6.25 mg/kg/injection, schedule: Q04DX003 (ip), vehicle: saline): 108 % of control
T/C (dose: 12.5 mg/kg/injection, schedule: Q04DX003 (ip), vehicle: saline): 115 % of control
T/C (dose: 50.0 mg/kg/injection, schedule: Q04DX003 (ip), vehicle: saline): 150 % of control

CC(C)=NNC1=NC(CC(C)C)P(=O)(NCCCCNP2(=O)SC(NN=C(C)C)=NC2CC(C)C)S1 (centres undefined)
T/C [13]: 103 % of control
T/C [14]: 103 % of control
T/C [15]: 101 % of control

CNc1ccccc1C(=O)NNC(=O)Nc1ccccc1C(F)(F)F
T/C [13]: 98 % of control
T/C [14]: 100 % of control
T/C [15]: 111 % of control

O=Cc1cccc(O)c1O
T/C [11]: 103 % of control and 110 % of control
T/C [12]: 115 % of control

OC(C(=S)N1CCOCC1)(c1ccccc1)c1ccccc1
T/C [1]: 105 % of control
T/C [2]: 103 % of control
T/C [3]: 98 % of control

CC(C)(C)C1=CC(=CC=C2C=CN(CCCCCCCCCCCO)C=C2)C=C(C(C)(C)C)C1=O
T/C [7]: 108 % of control
T/C [8]: 107 % of control
T/C [9]: 110 % of control

COC(=O)C(NC(=O)C(NC(=O)c1c2nc3c(C(=O)NC(C(=O)NC(C(=O)OC)C(C)C)C(C)OC(C)=O)ccc(C)c3oc-2c(C)c(=O)c1N)C(C)OC(C)=O)C(C)C (centres undefined)
T/C (dose: 0.05 mg/kg/injection, schedule: Q01DX009 (ip), vehicle: water): 107 % of control
T/C (dose: 0.1 mg/kg/injection, schedule: Q01DX009 (ip), vehicle: water): 107 % of control
T/C (dose: 0.2 mg/kg/injection, schedule: Q01DX009 (ip), vehicle: water): 100 % of control
T/C (dose: 0.4 mg/kg/injection, schedule: Q01DX009 (ip), vehicle: water): 97 % of control
T/C (dose: 0.8 mg/kg/injection, schedule: Q01DX009 (ip), vehicle: water): 100 % of control
T/C (dose: 1.6 mg/kg/injection, schedule: Q01DX009 (ip), vehicle: water): 100 % of control and 88 % of control
T/C (dose: 3.2 mg/kg/injection, schedule: Q01DX009 (ip), vehicle: water): 97 % of control
T/C (dose: 6.4 mg/kg/injection, schedule: Q01DX009 (ip), vehicle: water): 97 % of control
T/C (dose: 12.8 mg/kg/injection, schedule: Q01DX009 (ip), vehicle: water): 92 % of control

CC1=C(N2CCOCC2)C(N2CCOCC2)C(C)C1=O (centres undefined)
T/C [4]: 100 % of control
T/C [5]: 101 % of control
T/C [6]: 100 % of control

O=c1[nH]cnc2cc(N3CCOCC3)c([N+](=O)[O-])cc12
T/C (dose: 50.0 mg/kg/injection, schedule: Q04DX003 (ip), vehicle: saline with Tween-80): 105 % of control
T/C (dose: 100.0 mg/kg/injection, schedule: Q04DX003 (ip), vehicle: saline with Tween-80): 100 % of control
T/C (dose: 200.0 mg/kg/injection, schedule: Q04DX003 (ip), vehicle: saline with Tween-80): 100 % of control

CN1CCC(O)(c2ccc(Br)cc2)C(C(=O)c2ccc(Br)cc2)C1 (centres undefined)
T/C (dose: 12.5 mg/kg/injection, schedule: Q01DX005 (ip), vehicle: Klucel (hydroxypropylcellulose) (HPC)): 100 % of control
T/C (dose: 25.0 mg/kg/injection, schedule: Q01DX005 (ip), vehicle: Klucel (hydroxypropylcellulose) (HPC)): 100 % of control
T/C [4]: 90 % of control and 91 % of control

O=[N+]([O-])c1c(Nc2ccccc2)n(-c2ccccc2)c2ccc(O)cc12
T/C (dose: 3.12 mg/kg/injection, schedule: Q01DX005 (ip), vehicle: saline with Tween-80): 92 % of control
T/C (dose: 6.25 mg/kg/injection, schedule: Q01DX005 (ip), vehicle: saline with Tween-80): 102 % of control
T/C (dose: 12.5 mg/kg/injection, schedule: Q01DX005 (ip), vehicle: saline with Tween-80): 90 % of control and 92 % of control
T/C [13]: 86 % of control

CN=C/C(C(C)=O)=C(\C)O
T/C (dose: 12.5 mg/kg/injection, schedule: Q01DX009 (ip), vehicle: saline): 103 % of control
T/C (dose: 25.0 mg/kg/injection, schedule: Q01DX009 (ip), vehicle: saline): 105 % of control
T/C [10]: 101 % of control and 106 % of control
T/C [11]: 112 % of control and 91 % of control

CC(C)(C)c1ccc(N)c(N)c1
T/C (dose: 50.0 mg/kg/injection, schedule: Q01DX009 (ip), vehicle: DMSO): 98 % of control
T/C (dose: 100.0 mg/kg/injection, schedule: Q01DX009 (ip), vehicle: DMSO): 99 % of control

CN(CCc1ccccn1)c1ccc2c(c1)Cc1ccccc1-2
T/C [4]: 98 % of control
T/C [5]: 93 % of control

COC(=O)C1=C(O)C(C(=O)OC)C2C(C(=O)OC)=C(O)C(C(=O)OC)C12 (centres undefined)
T/C [4]: 97 % of control
T/C [5]: 103 % of control
T/C [6]: 92 % of control

CN1CC(O)C2=CC(=O)C(=O)C(I)=C21 (centres undefined)
T/C (dose: 30.0 mg/kg/injection, schedule: Q01DX005 (ip), vehicle: saline + Tween-80 + alcohol): 108 % of control
T/C [4]: 109 % of control
T/C (dose: 60.0 mg/kg/injection, schedule: Q01DX005 (ip), vehicle: saline + Tween-80 + alcohol): 101 % of control
T/C (dose: 240.0 mg/kg/injection, schedule: Q01DX005 (ip), vehicle: saline + Tween-80 + alcohol): 114 % of control
